Results: patent US20090298805A1, “TOPICAL PYRITHIONE COMPOSITIONS AND METHODS FOR TREATMENT OF NAIL FUNGUS” (priority 2008, published 2009)

How the values were obtained:
T. mentagrophytes = test: Formulations applied to artificial nail (IMS VITRO-NAILS), zone of inhibition; type: cell-based, Trichophyton mentagrophytes
Source text: Each test formulation (50 microliters) was pipetted onto sterile ½ inch paper disks and was allowed to air dry. Spore suspensions of Trichophyton mentagrophytes and Trichophyton rubrum, were made using standard microbiological techniques. The resulting suspensions contained approximately 10,000,000 spores per milliliter. Sterile swabs were used to distribute the spore suspensions over the surface of Potato Dextrose Agar plates and one sample disk was placed in the center of each plate. As an additional test, a synthetic nail substrate, IMS VITRO-NAILS, was used to simulate permeation of the active through a human nail. This material is reported to have the wetting properties, thickness and flexibility of human nails. This experiment was conducted in the same manner as first experiment above, except that the formulations were pipetted onto ¾-1 inch squares of VITRO-NAILS and either allowed to dry for 2 days before testing or place directly on the inoculated agar plates while wet.

Trichophyton rubrum = test: Microbiology efficacy test, formulations applied to paper disks, zone of inhibition; type: cell-based; details: T. rubrum; 50 microliters on 1/2 inch paper disk, air dried; Potato Dextrose Agar; average results
Source text: (§1) Each test formulation (50 microliters) was pipetted onto sterile ½ inch paper disks and was allowed to air dry. Spore suspensions of Trichophyton mentagrophytes and Trichophyton rubrum, were made using standard microbiological techniques. The resulting suspensions contained approximately 10,000,000 spores per milliliter. Sterile swabs were used to distribute the spore suspensions over the surface of Potato Dextrose Agar plates and one sample disk was placed in the center of each plate.

[1] = system: Trichophyton mentagrophytes; test: as above; type: cell-based; details: T. mentagrophytes; 50 microliters on 1/2 inch paper disk, air dried; Potato Dextrose Agar; average results
Source text: as §1

Cc1cc(C2CCCCC2)n(O)c(=O)c1 [Ciclopirox]
Zone of Inhibition, Tested Dry (T. mentagrophytes; allowed to dry for 2 days before testing): 8.75 mm | Zone of Inhibition, Tested Wet (T. mentagrophytes; placed directly on inoculated agar plates while wet): 9 mm | Zone of Inhibition (Trichophyton rubrum): 19.0 mm | Zone of Inhibition [1]: 16.0 mm
